Consider 27 compounds from patent publication US8716292B2, “Riminophenazines with 2-(heteroaryl)amino substituents and their anti-microbial activity” (priority 2010, dated 2014).

For this assay, the system named is Mycobacterium tuberculosis H37Rv strains. Nature of the assay: In vitro assay for antimicrobial susceptibility (microplate Alamar blue MIC). Type of assay: cell-based. Conditions: Mycobacterium tuberculosis, H37RV, read-out: MIC (μg/mL) against H37Rv.
Setting [1] is: in vitro, Mycobacterium tuberculosis H37Rv strains.

Values after ≈ are worked out from the molar mass of the structure shown. Where two headings read alike, the source gives them in different places.

Consider `COC1CCC(/N=c2\cc3n(-c4ccc(C)cc4)c4ccccc4nc-3cc2Nc2cncc(C)c2)CC1` (stereo not drawn) [TBI-330, 5-(4-Methylphenyl)-3-(4-methoxycyclohexyl)imino-2-(5-methyl-3-pyridyl)amino-3,5-dihydrophenazine], for which the MIC under setting [1] was 0.035 µg/mL (≈ 0.0695 µM).

`Cc1ccc(Nc2cc3nc4ccccc4n(-c4ccc(Cl)c(Cl)c4)c-3c/c2=N\C(C)C)cn1` [TBI-353]: the MIC under setting [1] amounted to 0.025 µg/mL (≈ 0.0512 µM). As to `Clc1cccc(-n2c3c/c(=N\C4CC4)c(Nc4cccnc4)cc-3nc3ccccc32)c1` [TBI-812, 5-(3-Chlorophenyl)-3-cyclopropylimino-2-(3-pyridyl)amino-3,5-dihydrophenazine], the MIC under setting [1] turned out to be 0.013 µg/mL (≈ 0.0297 µM). As for `COCC(COC)/N=c1\cc2n(-c3ccc(C)cc3)c3ccccc3nc-2cc1Nc1cccnc1OC` [TBI-373, 5-(4-Methylphenyl)-3-(1,3-dimethoxyisopropyl)imino-2-(2-methoxy-3-pyridyl)amino-3,5-dihydrophenazine], the MIC under setting [1] worked out at 0.125 µg/mL (≈ 0.245 µM). Still for that read-out and setting: next, `COc1ccc(Nc2cc3nc4ccccc4n(-c4ccc(C)cc4)c-3c/c2=N\C2CCC(OC)CC2)cn1` (stereo not drawn) [TBI-358, 5-(4-Methylphenyl)-3-(4-methoxycyclohexyl)imino-2-(6-methoxy-3-pyrid)amino-3,5-dihydrophenazine]: 0.202 µg/mL (≈ 0.389 µM); `Cc1ncccc1Nc1cc2nc3ccccc3n(-c3ccccc3)c-2c/c1=N\C1CCCCC1` [TBI-077, 5-Phenyl-3-cyclohexylimino-2-(2-methyl-3-pyridyl)amino-3,5-dihydrophenazine]: 0.016 µg/mL (≈ 0.0348 µM). On to `CC(C)/N=c1\cc2n(-c3ccc(Cl)cc3)c3ccccc3nc-2cc1Nc1ccccn1` [TBI-1076, 5-(4-Chlorophenyl)-3-(1-methylethyl)imino-2-(2-pyridyl)amino-3,5-dihydrophenazine], for which, under “7H9, Alamar blue, inhibition ≧90%”, the MIC was 0.014 µg/mL (≈ 0.0318 µM). As for `Cc1ccc(-n2c3c/c(=N\C4CCN(C)CC4)c(Nc4ccc(C)nc4)cc-3nc3ccccc32)cc1` [TBI-319, 5-(4-Methylphenyl)-3-(N-methyl-4-piperidyl)imino-2-(6-methyl-3-pyridyl)amino-3,5-dihydrophenazine], under setting [1], the MIC came out at 0.173 µg/mL (≈ 0.354 µM). Turning to `Cc1ccc(-n2c3c/c(=N\C4CCN(CC(C)C)CC4)c(Nc4cccnc4)cc-3nc3ccccc32)cc1` [TBI-305, 5-(4-Methylphenyl)-3-(N-isobutyl-4-piperidyl)imino-2-(3-pyridyl)amino-3,5-dihydrophenazine], under setting [1], the MIC worked out at 0.125 µg/mL (≈ 0.242 µM). The same measure, in the same setting: with `COc1ncccc1Nc1cc2nc3ccccc3n(-c3ccccc3OC(F)(F)F)c-2c/c1=N\C1CCCCC1` [TBI-1047, 5-(2-Trifluoromethoxyphenyl)-3-cyclohexylimino-2-(2-methoxy-3-pyridyl)amino-3,5-dihydrophenazine] the figure was 0.465 µg/mL (≈ 0.831 µM); with `COc1ncccc1Nc1cc2nc3ccccc3n(-c3ccc(Br)cc3)c-2c/c1=N\C(C)C` [TBI-516, 5-(4-Bromophenyl)-3-(1-methylethyl)imino-2-(2-methoxy-3-pyridyl)amino-3,5-dihydrophenazine], 0.049 µg/mL (≈ 0.0953 µM); with `Cc1ccc(Nc2cc3nc4ccccc4n(-c4ccc(Cl)c(Cl)c4)c-3c/c2=N\C2CCOCC2)cn1` [TBI-945, 5-(3,4-Dichlorophenyl)-3-(4-tetrahydropyranyl)imino-2-(6-methyl-3-pyridyl)amino-3,5-dihydrophenazine], 0.25 µg/mL (≈ 0.471 µM).

On to `COc1ncccc1Nc1cc2nc3ccccc3n(-c3ccccc3Cl)c-2c/c1=N\C1CCOCC1` [TBI-870], for which, under setting [1], the MIC came out at 0.084 µg/mL (≈ 0.164 µM). `COCC(C/N=c1\cc2n(-c3ccc(C(F)(F)F)cc3)c3ccccc3nc-2cc1Nc1cccnc1OC)OC` (stereo not drawn) [TBI-744]: under setting [1], the MIC worked out at 0.059 µg/mL (≈ 0.105 µM). Consider `COc1ncccc1Nc1cc2nc3ccccc3n(-c3ccc(Cl)cc3Cl)c-2c/c1=N\C1CC1` [TBI-370, 5-(2,4-Dichlorophenyl)-3-cyclopropylimino-2-(2-methoxy-3-pyridyl)amino-3,5-dihydrophenazine], for which the MIC under setting [1] was determined as 0.052 µg/mL (≈ 0.104 µM). For the compound `COC1CCC(/N=c2\cc3n(-c4ccc(Cl)cc4)c4ccccc4nc-3cc2Nc2cccnc2C)CC1` (stereo not drawn) [TBI-453, 5-(4-Chlorophenyl)-3-(4-methoxycyclohexyl)imino-2-(2-methyl-3-pyridyl)amino-3,5-dihydrophenazine], the MIC under setting [1] is 0.011 µg/mL (≈ 0.021 µM). The same measure, in the same setting: next, `COc1ccc2nc3cc(Nc4cccnc4OC)/c(=N/C4CC4)cc-3n(-c3ccc(Cl)cc3)c2c1` [TBI-894, 7-Methoxy-5-(4-chlorophenyl)-3-cyclopropylimino-2-(2-methoxy-3-pyridyl)amino-3,5-dihydrophenazine]: 0.06 µg/mL (≈ 0.12 µM); `Cc1ncccc1Nc1cc2nc3ccccc3n(-c3ccc(C(F)(F)F)cc3)c-2c/c1=N\C1CCC(O)CC1` (stereo not drawn) [TBI-709, 5-(4-Trifluoromethylphenyl)-3-(4-hydroxycyclohexyl)imino-2-(2-methyl-3-pyridyl)amino-3,5-dihydrophenazine]: 0.108 µg/mL (≈ 0.199 µM); `Cc1ncccc1Nc1cc2nc3ccccc3n(-c3ccc(C(F)(F)F)cc3)c-2c/c1=N\C1CCC1` [TBI-734, 5-(4-Trifluoromethylphenyl)-3-cyclobutylimino-2-(2-methyl-3-pyridyl)amino-3,5-dihydrophenazine]: 0.014 µg/mL (≈ 0.028 µM). Still for that read-out and setting: next, `FC(F)(F)Oc1cccc(-n2c3c/c(=N\C4CCOCC4)c(Nc4cccnc4)cc-3nc3ccccc32)c1` [TBI-1020, 5-(3-Trifluoromethoxyphenyl)-3-(4-tetrahydropyranyl)imino-2-(3-pyridyl)amino-3,5-dihydrophenazine]: 0.058 µg/mL (≈ 0.109 µM); `Cc1ccc(Nc2cc3nc4cc(F)ccc4n(-c4ccc(Cl)c(Cl)c4)c-3c/c2=N\C2CC2)cn1` [TBI-888]: 0.028 µg/mL (≈ 0.0555 µM); `Cc1ccc(Nc2cc3nc4ccccc4n(-c4ccccc4)c-3c/c2=N\C2CCC(O)CC2)cn1` (stereo not drawn) [TBI-086]: 0.5 µg/mL (≈ 1.05 µM). Turning to `CC(C)CN1CCC(/N=c2\cc3n(-c4ccc(OC(F)(F)F)cc4)c4ccccc4nc-3cc2Nc2cccnc2)CC1` [TBI-158, 5-(4-Trifluoromethoxyphenyl)-3-(N-isobutyl-4-piperidyl)imino-2-(3-pyridyl)amino-3,5-dihydrophenazine], the MIC under setting [1] was 0.03 µg/mL (≈ 0.0511 µM).

For `COc1ccc(Nc2cc3nc4ccccc4n(-c4ccc(F)cc4)c-3c/c2=N\C2CCOCC2)cn1` [TBI-935, 5-(4-Fluorophenyl)-3-(4-tetrahydropyranyl)imino-2-(6-methoxy-3-pyridyl)amino-3,5-dihydrophenazine], the MIC under setting [1] amounted to 0.205 µg/mL (≈ 0.414 µM).

On to `Cc1ccc(Nc2cc3nc4ccccc4n(-c4ccc(F)cc4)c-3c/c2=N\CC2CCCN(C)C2)cn1` (stereo not drawn) [TBI-902, 5-(4-Fluorophenyl)-3-(N-methyl-3-piperidylmethyl)imino-2-(6-methyl-3-pyridyl)amino-3,5-dihydrophenazine], for which, under setting [1], the MIC turned out to be 0.058 µg/mL (≈ 0.114 µM). The same measure, in the same setting: with `COC1CCC(/N=c2\cc3n(-c4ccc(Cl)c(Cl)c4)c4ccc(F)cc4nc-3cc2Nc2ccc(C)nc2)CC1` (stereo not drawn) [TBI-878, 8-Fluoro-5-(3,4-dichlorophenyl)-3-(4-methoxycyclohexyl)imino-2-(6-methyl-3-pyridinyl)amino-3,5-dihydrophenazine] the figure was 0.029 µg/mL (≈ 0.0503 µM); with `FC(F)(F)Oc1ccc(-n2c3c/c(=N\C4CCN(C5CCCC5)CC4)c(Nc4cccnc4)cc-3nc3ccccc32)cc1` [TBI-163, 5-(4-Trifluoromethoxyphenyl)-3-(N-cyclopentyl-4-piperidyl)imino-2-(3-pyridyl)amino-3,5-dihydrophenazine], 0.06 µg/mL (≈ 0.1 µM).
